In patent US11098102B2, “Insulin conjugates” (SANOFI, priority 2018, dated 2021):
Marks after values point to notes of the source that are not given here.

Assays:
[1] = biological target: T1, immobilized human serum albumin (Homo sapiens, UniProt P02768); assay: Albumin binding: affinity chromatography on columns with immobilized human serum albumin (net retention time); conditions: isolated binders; HSA column 25° C., PBS pH 7.4/isopropanol gradient
T1 construct: purchased Chiralpak (Chiraltech) 34712
T1 sequence (P02768 25-609): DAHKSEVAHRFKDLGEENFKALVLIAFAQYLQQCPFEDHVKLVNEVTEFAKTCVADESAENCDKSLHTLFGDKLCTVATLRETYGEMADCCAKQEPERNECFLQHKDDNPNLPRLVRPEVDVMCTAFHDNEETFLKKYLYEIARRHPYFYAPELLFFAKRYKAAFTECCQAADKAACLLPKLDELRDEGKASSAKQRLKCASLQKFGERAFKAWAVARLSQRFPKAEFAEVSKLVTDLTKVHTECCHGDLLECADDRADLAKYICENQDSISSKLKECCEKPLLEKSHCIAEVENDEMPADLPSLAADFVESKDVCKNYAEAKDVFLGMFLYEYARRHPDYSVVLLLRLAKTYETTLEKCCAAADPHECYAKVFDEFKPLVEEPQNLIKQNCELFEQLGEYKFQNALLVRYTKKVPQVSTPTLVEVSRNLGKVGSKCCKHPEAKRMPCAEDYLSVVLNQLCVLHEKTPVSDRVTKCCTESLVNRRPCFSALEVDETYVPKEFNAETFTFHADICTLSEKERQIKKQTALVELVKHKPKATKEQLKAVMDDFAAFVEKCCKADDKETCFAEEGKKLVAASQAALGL
Experimental: In order to identify suitable binder molecules, which when bound to a peptide, such as an insulin, are able to improve the half-life in plasma and to prolong the profile of action, a system was established based on affinity chromatography with serum albumin columns, i.e. columns with immobilized serum albumin.
The net retention time of the binders (samples) was calculated according to the following formula: Net retention time=RetTimeSample−RetTimet0 marker
• Instrument: Waters Alliance 2795/Waters PDA 2996 or Waters H-Class UPLC equipped with a Waters Acquity photodiode-array detector • Software: Waters Empower 3 • Column: […]® HSA 50×4 mm; 5 μm Particle size • Chiraltech Order Numbers: HSA: 34712 • Eluent A: Phosphate Buffer saline (PBS) at pH=7.4 • Gibco PBS pH7.4 (10×) Phosphate Buffered Saline 500 ml; • Order Number: 70011-036 (500 ml) • Eluent B: Isopropanol • Fisher Order Number: A461-1 (10 • Gradient:
• Column temperature: 25° C. • Flow rate: 1.0 ml/min • Detection: λ=220 nm • Injection volume: 20 μL • Sample Conc.: 1 mg/ml insulin solution in PBS for insulin samples • 5 μL of 10 mM DMSO stock solution (DMSO evaporated and re-dissolved in 200 μL i-propanol/water 1:1 v/v) for isolated binder samples (250 μM, 0.2 mg/ml at 800 Da MolWeight) • t0 marker Sodium Nitrate (NaNO3) solution in water, 0.05 mg/ml • Diluted from aqueous 1 mg/ml stock solution (Fluka Order Number: 74246-100ML) • Reported Value Net retention time of sample: RetTime Sample−RetTime t0 marker
Affinity chromatography was carried out i) for insulin conjugates according to Examples 3.3 and 3.4 on a Waters Alliance Separation Module 2695 equipped with a Waters photodiode-array detector 2996 or Waters H-Class UPLC equipped with a Waters Acquity photodiode-array detector and ii) for isolated binders according to Example 2.11 on a Waters Alliance Separation Module 2795 equipped with a Waters photodiode-array detector 2996 or Waters H-Class UPLC equipped with a Waters Acquity photodiode-array detector.
Columns with immobilized human serum albumin (50×4 mm; 5 μm particle size) were purchased from Chiralpak and used for separations.
The columns with immobilized serum albumin were kept at 25° C. during the LC run, UV detection was carried out at 220 nm and injection volume was 20 μL.
The net retention time of the samples was reported according to Net retention time=RetTime Sample−RetTime t0 marker

[2] = biological target: T2, insulin receptor isoform B (IR-B) (Homo sapiens, UniProt P06213); assay: Insulin receptor binding affinity assay of insulin analogs (Example 8A, SPA competition binding); design: expressed in transfected cells; host or cells: CHO cells overexpressing the IR; isolated plasma membranes; conditions: relative to human insulin; a value of 0 means below the detection limit
T2 sequence (P06213 28-758 limits assumed): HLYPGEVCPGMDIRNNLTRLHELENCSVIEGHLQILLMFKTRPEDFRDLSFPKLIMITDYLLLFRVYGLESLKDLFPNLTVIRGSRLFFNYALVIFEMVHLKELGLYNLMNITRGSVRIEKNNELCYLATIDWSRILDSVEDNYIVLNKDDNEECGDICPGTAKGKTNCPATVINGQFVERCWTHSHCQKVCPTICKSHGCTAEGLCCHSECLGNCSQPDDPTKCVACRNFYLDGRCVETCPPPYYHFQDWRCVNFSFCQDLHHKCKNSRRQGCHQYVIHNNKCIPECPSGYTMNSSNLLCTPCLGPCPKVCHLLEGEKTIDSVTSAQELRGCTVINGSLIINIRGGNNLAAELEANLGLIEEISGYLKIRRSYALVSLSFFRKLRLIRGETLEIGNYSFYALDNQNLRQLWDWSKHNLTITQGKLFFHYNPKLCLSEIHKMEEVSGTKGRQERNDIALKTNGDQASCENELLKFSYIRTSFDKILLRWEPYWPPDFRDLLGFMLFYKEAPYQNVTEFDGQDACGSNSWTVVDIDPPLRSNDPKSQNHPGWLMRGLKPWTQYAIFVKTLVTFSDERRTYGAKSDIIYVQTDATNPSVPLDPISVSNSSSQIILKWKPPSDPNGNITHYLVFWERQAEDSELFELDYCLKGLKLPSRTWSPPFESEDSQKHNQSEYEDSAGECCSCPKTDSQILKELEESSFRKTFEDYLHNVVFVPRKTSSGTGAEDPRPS
T2 sequence (P06213 763-1382 limits assumed): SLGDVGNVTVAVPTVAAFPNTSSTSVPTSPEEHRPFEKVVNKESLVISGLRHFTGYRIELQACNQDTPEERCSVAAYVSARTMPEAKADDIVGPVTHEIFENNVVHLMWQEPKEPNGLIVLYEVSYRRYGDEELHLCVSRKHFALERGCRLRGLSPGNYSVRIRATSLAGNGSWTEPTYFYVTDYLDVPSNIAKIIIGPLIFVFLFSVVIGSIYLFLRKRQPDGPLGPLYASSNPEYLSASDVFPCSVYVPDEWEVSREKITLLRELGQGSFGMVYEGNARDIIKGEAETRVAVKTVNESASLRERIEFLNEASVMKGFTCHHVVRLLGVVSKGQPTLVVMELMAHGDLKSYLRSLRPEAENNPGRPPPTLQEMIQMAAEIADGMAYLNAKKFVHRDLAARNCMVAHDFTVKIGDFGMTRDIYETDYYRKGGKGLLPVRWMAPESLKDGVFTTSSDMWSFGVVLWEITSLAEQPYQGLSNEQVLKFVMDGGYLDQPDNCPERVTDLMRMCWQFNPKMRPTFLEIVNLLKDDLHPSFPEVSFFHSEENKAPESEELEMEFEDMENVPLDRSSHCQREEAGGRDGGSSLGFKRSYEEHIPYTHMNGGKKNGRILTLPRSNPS
Experimental: Methods for determining the binding affinity of an insulin analog to an insulin receptor are well known in the art. […] The insulin receptor can be present in a membrane of a cell, e.g. of CHO (Chinese Hamster Ovary) cell, which overexpresses a recombinant insulin receptor. In an embodiment, the insulin receptor binding affinity is determined as described in the Examples section.
Insulin receptor binding affinity for the analogs listed in Table 4 was determined as described in Hartmann et al. (Effect of the long-acting insulin analogs glargine and degludec on cardiomyocyte cell signaling and function. Cardiovasc Diabetol. 2016; 15:96). Isolation of insulin receptor embedded plasma membranes (M-IR) and competition binding experiments were performed as previously described (Sommerfeld et al., PLoS One. 2010; 5 (3): e9540). Briefly, CHO-cells overexpressing the IR were collected and re-suspended in ice-cold 2.25 STM buffer (2.25 M sucrose, 5 mM Tris-HCl pH 7.4, 5 mM MgCl2, complete protease inhibitor) and disrupted using a Dounce homogenizer followed by sonication. The homogenate was overlaid with 0.8 STM buffer (0.8 M sucrose, 5 mM Tris-HCl pH 7.4, 5 mM MgCl2, complete protease inhibitor) and ultra-centrifuged for 90 min at 100,000 g. Plasma membranes at the interface were collected and washed twice with phosphate buffered saline (PBS). The final pellet was re-suspended in dilution buffer (50 mM Tris-HCl pH 7.4, 5 mM MgCl2, complete protease inhibitor) and again homogenized with a Dounce homogenizer. Competition binding experiments were performed in a binding buffer (50 mM Tris-HCl, 150 mM NaCl, 0.1% BSA, complete protease inhibitor, adjusted to pH 7.8) in 96-well microplates. In each well 2 μg isolated membrane was incubated with 0.25 mg wheat germ agglutinin polyvinyltoluene polyethylenimine scintillation proximity assay (SPA) beads. […] The radioactivity was measured at equilibrium in a microplate scintillation counter (Wallac Microbeta, Freiburg, Germany).”

[3] = biological target: T2, insulin receptor isoform B (IR-B); assay: Insulin receptor autophosphorylation assay (In-Cell Western, CHO cells, Example 8B); assay type: cell-based; design: expressed in transfected cells; host or cells: CHO cells; conditions: relative to human insulin
[4] = biological target: Insulin degrading enzyme, IDE (Homo sapiens, UniProt P14735); assay: In vitro proteolytic stability against insulin degrading enzyme (Example 9); assay type: in vitro ADME; conditions: 37° C., 2 μM
Experimental: (§1) The stability determination was done using appropriate time points (for SIF and SGF 15, 30, 60, 120 and 240 minutes; for proteases 15, 30, 60 and 120 minutes). The incubation was done at 37° C. and the % of remaining parent compound was calculated in reference to a TO time point.
(§2) For the determination of the parent compound an appropriate bioanalytical LC-MS/MS or LC-HRMS method was used, using the supernatant, after protein precipitation with ethanol (1 eq. v/v) and a centrifugation step.
(§3) Compounds were dissolved in diluted hydrochloric acid at a final concentration of 40 μM. The compound concentration in the assay was 2 μM. A 1:20 dilution of the working solution was done into the protease buffer and samples are then incubated at 37° C., under stirring. At the appropriate time point and aliquot was taken, the reaction was quenched ethanol (1 eq. v/v), than centrifuged. The supernatant was analyzed.

[5] = biological target: T3, simulated gastric fluid (pepsin) (Sus scrofa, UniProt P00791); assay: In vitro stability in simulated gastric fluid (Example 9); assay type: in vitro ADME, porcine; conditions: 37° C., 2 μM
T3 construct: from tissue; host or cells: porcine stomach mucosa
T3 sequence (P00791 60-385): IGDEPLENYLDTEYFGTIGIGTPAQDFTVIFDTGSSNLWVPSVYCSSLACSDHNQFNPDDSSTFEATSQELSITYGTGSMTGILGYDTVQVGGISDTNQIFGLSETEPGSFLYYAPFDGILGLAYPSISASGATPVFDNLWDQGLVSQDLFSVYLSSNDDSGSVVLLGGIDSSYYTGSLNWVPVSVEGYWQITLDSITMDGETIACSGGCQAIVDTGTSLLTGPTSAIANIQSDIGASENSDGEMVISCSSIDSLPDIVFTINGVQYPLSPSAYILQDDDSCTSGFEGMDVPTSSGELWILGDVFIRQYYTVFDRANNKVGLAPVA
Experimental: Two grams of sodium chloride and 3.2 g of purified pepsin (from porcine stomach mucosa, with an activity of 800 to 2500 units per mg of protein) were dissolved in 7.0 ml of hydrochloric acid. The volume was adjusted with water up to 1000 ml.
as §1, §2, §3

Cathepsin D = Cathepsin D (Homo sapiens, UniProt P07339); assay: In vitro proteolytic stability against cathepsin D (Example 9); assay type: in vitro ADME; conditions: 37° C., 2 μM
Cathepsin D, sequence (P07339 65-412, species assumed): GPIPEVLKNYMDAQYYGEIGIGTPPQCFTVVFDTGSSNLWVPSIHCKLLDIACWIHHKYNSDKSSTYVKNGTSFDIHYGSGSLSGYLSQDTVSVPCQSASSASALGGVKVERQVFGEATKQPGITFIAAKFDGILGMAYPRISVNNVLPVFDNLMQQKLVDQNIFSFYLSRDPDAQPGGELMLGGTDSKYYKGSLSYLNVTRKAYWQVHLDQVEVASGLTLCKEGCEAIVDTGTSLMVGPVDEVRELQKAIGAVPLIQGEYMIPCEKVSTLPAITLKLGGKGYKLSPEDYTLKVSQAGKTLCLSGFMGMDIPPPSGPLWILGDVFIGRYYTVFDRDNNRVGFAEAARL
Experimental: as §1, §2, §3

α-Chymotrypsin = α-Chymotrypsin (Bos taurus, UniProt P00766); assay: In vitro proteolytic stability against α-chymotrypsin (Example 9); assay type: in vitro ADME; conditions: 37° C., 2 μM
Experimental: as §1, §2, §3

O=C(O)CCCCCCCCCCCCCc1ccc(S(=O)(=O)Nc2ccc(C(=O)NCCOCCOCC(=O)NCCOCCOCC(=O)O)cn2)cc1 [Binder 30]
NRT [min] (net retention time on columns with immobilized human serum albumin) [1]: 14.36 min
Insulin-receptor binding affinity [2]: 0**
autophosphorylation activity [3]: 0.01

O=C(O)CCCCCCCCCCCc1cccc(S(=O)(=O)Nc2ccc(C(=O)NCCOCCOCC(=O)NCCOCCOCC(=O)O)cn2)c1 [Binder 40]
NRT [min] (net retention time on columns with immobilized human serum albumin) [1]: 11.44 min
Insulin-receptor binding affinity [2]: 0.01
autophosphorylation activity [3]: 0.01

O=C(O)CCCCCCCCCCCOc1ccc(CCc2ccc(S(=O)(=O)Nc3ncc(C(=O)NCCOCCOCC(=O)NCCOCCOCC(=O)O)cn3)cc2)cc1 [Binder 3]
NRT [min] (net retention time on columns with immobilized human serum albumin) [1]: 17.51 min
Insulin-receptor binding affinity [2]: 0.24
autophosphorylation activity [3]: 0.34

O=C(O)CCCCCCCCCCCOc1ccc(S(=O)(=O)Nc2ncc(C(=O)NCCOCCOCC(=O)NCCOCCOCC(=O)O)cn2)cc1 [Binder 16]
NRT [min] (net retention time on columns with immobilized human serum albumin) [1]: 11.88 min
Percent remaining insulin analog, Insulin degrading enzyme, IDE (30 minutes) [4]: 88%
Insulin-receptor binding affinity [2]: 0.36
autophosphorylation activity [3]: 0.29

O=C(O)CCCCCCCCCCCCCOc1ccc(S(=O)(=O)Nc2ccc(C(=O)NCCOCCOCC(=O)NCCOCCOCC(=O)O)cn2)cc1 [Binder 32]
NRT [min] (net retention time on columns with immobilized human serum albumin) [1]: 13.9 min
Insulin-receptor binding affinity [2]: 0
autophosphorylation activity [3]: 0.04

O=C(O)CCCCCCCCCCCCCCCc1cc(Oc2ccc(S(=O)(=O)Nc3ccc(C(=O)NCCOCCOCC(=O)NCCOCCOCC(=O)O)cn3)cc2)ccc1F [Binder 23]
NRT [min] (net retention time on columns with immobilized human serum albumin) [1]: 15.61 min
Percent remaining insulin analog, Insulin degrading enzyme, IDE (30 minutes) [4]: 80%
Insulin-receptor binding affinity [2]: 0.56
autophosphorylation activity [3]: 0.37

O=C(O)CCCCCCCCCCCCCc1ccc(Oc2ccc(S(=O)(=O)Nc3ncc(C(=O)NCCOCCOCC(=O)NCCOCCOCC(=O)O)cn3)cc2)cc1 [Binder 11]
NRT [min] (net retention time on columns with immobilized human serum albumin) [1]: 14.52 min
Percent remaining insulin analog, Insulin degrading enzyme, IDE (30 minutes) [4]: 12%
Insulin-receptor binding affinity [2]: 0.01
autophosphorylation activity [3]: 0.06

O=C(O)CCCCCCCCCCCOc1ccc(CCc2ccc(S(=O)(=O)Nc3ccc(C(=O)NCCOCCOCC(=O)NCCOCCOCC(=O)O)cn3)cc2)cc1 [Binder 25]
NRT [min] (net retention time on columns with immobilized human serum albumin) [1]: 17.48 min
Insulin-receptor binding affinity [2]: 0.02
autophosphorylation activity [3]: 0.03

O=C(O)CCCCCCCCCCCCCCCCCc1ccc(S(=O)(=O)Nc2ncc(C(=O)NCCOCCOCC(=O)NCCOCCOCC(=O)O)cn2)cc1 [Binder 4]
NRT [min] (net retention time on columns with immobilized human serum albumin) [1]: 15.75 min
Insulin-receptor binding affinity [2]: 0.57
autophosphorylation activity [3]: 0.4

O=C(O)CCCCCCCCCCCCCOc1ccc(S(=O)(=O)Nc2ncc(C(=O)NCCOCCOCC(=O)NCCOCCOCC(=O)O)cn2)cc1 [Binder 33]
NRT [min] (net retention time on columns with immobilized human serum albumin) [1]: 13.57 min
Insulin-receptor binding affinity [2]: 0.01
autophosphorylation activity [3]: 0.02

O=C(O)CCCCCCCCCCCCCc1ccc(S(=O)(=O)Nc2ccc(C(=O)NCCOCCOCC(=O)NCCOCCOCC(=O)O)cn2)cc1 [Binder 20]
NRT [min] (net retention time on columns with immobilized human serum albumin) [1]: 14.8 min
Insulin-receptor binding affinity [2]: 0.4
autophosphorylation activity [3]: 0.28

O=C(O)CCCCCCCCCCCc1cc(Oc2ccc(S(=O)(=O)Nc3ncc(C(=O)NCCOCCOCC(=O)NCCOCCOCC(=O)O)cn3)cc2)ccc1F [Binder 28]
NRT [min] (net retention time on columns with immobilized human serum albumin) [1]: 15.39 min
Insulin-receptor binding affinity [2]: 0.12
autophosphorylation activity [3]: 0.11

O=C(O)CCCCCCCCCCCCCCCOc1ccc(S(=O)(=O)Nc2ccc(C(=O)NCCOCCOCC(=O)NCCOCCOCC(=O)O)cn2)c(Cl)c1Cl [Binder 36]
NRT [min] (net retention time on columns with immobilized human serum albumin) [1]: 13.89 min
Insulin-receptor binding affinity [2]: 0.17
autophosphorylation activity [3]: 0.23

O=C(O)CCCCCCCCCc1ccc(CCOc2ccc(S(=O)(=O)Nc3ncc(C(=O)NCCOCCOCC(=O)NCCOCCOCC(=O)O)cn3)cc2)cc1 [Binder 10]
NRT [min] (net retention time on columns with immobilized human serum albumin) [1]: 15.65 min
Insulin-receptor binding affinity [2]: 0.37
autophosphorylation activity [3]: 0.31

O=C(O)CCCCCCCCCOc1ccc(S(=O)(=O)Nc2ccc(C(=O)NCCOCCOCC(=O)NCCOCCOCC(=O)O)cn2)cc1 [Binder 19]
NRT [min] (net retention time on columns with immobilized human serum albumin) [1]: 10.82 min
Percent remaining insulin analog, Gastric fluid (30 minutes) [5]: 0%
Percent remaining insulin analog, Cathepsin D (30 minutes) (Cathepsin D): 0%
Percent remaining insulin analog, Insulin degrading enzyme, IDE (30 minutes) [4]: 98%
Percent remaining insulin analog, α-Chymotrypsin (120 minutes) (α-Chymotrypsin): 30%
autophosphorylation activity [3]: 0.32

O=C(O)CCCCCCCCCc1ccc(CCOc2ccc(S(=O)(=O)Nc3ccc(C(=O)NCCOCCOCC(=O)NCCOCCOCC(=O)O)cn3)cc2)cc1 [Binder 26]
NRT [min] (net retention time on columns with immobilized human serum albumin) [1]: 14.98 min
Insulin-receptor binding affinity [2]: 0.01
autophosphorylation activity [3]: 0.07

O=C(O)CCCCCCCCCCCCCCCCCc1ccc(S(=O)(=O)Nc2ccc(C(=O)NCCOCCOCC(=O)NCCOCCOCC(=O)O)cn2)cc1 [Binder 31]
NRT [min] (net retention time on columns with immobilized human serum albumin) [1]: 15.77 min
Insulin-receptor binding affinity [2]: 0.12
autophosphorylation activity [3]: 0.13

O=C(O)CCCCCCCCCCCCCCCOc1ccc(S(=O)(=O)Nc2ccc(C(=O)NCCOCCOCC(=O)NCCOCCOCC(=O)O)cn2)cc1F [Binder 39]
NRT [min] (net retention time on columns with immobilized human serum albumin) [1]: 13.68 min
Insulin-receptor binding affinity [2]: 0
autophosphorylation activity [3]: 0.02

O=C(O)CCCCCCCCCCCCCCc1cc(Oc2ccc(S(=O)(=O)Nc3ncc(C(=O)NCCOCCOCC(=O)NCCOCCOCC(=O)O)cn3)cc2)ccc1F [Binder 13]
NRT [min] (net retention time on columns with immobilized human serum albumin) [1]: 15.29 min
Insulin-receptor binding affinity [2]: 0.11
autophosphorylation activity [3]: 0.1

O=C(O)CCCCCCCCCCCOc1ccc(S(=O)(=O)Nc2ccc(C(=O)NCCOCCOCC(=O)NCCOCCOCC(=O)O)cn2)cc1 [Binder 18]
NRT [min] (net retention time on columns with immobilized human serum albumin) [1]: 12.37 min
Insulin-receptor binding affinity [2]: 0.23
autophosphorylation activity [3]: 0.18
